Patent US20020071842A1, “Soluble CD1 compositions and uses thereof” (priority 2000, published 2002)
“Also recorded” adds a separate entry of the source.

What was measured:
[1] = test system: T cell lines and clones isolated from peripheral blood; test: Functional analysis (cytokine secretion) of T cell lines and clones sorted with α-GalCer treated CD1d-Fc; assay type: cell-based, human; conditions: in the presence of antigen
Source text: T cell lines and clones stained with the α-GalCer treated CD1d-Fc aggregates were isolated from peripheral blood by flow cytometric cell sorting and limiting dilution cloning, and cultured using standard techniques. […] Cytokine secretion was enhanced in the presence of α-GalCer.

[2] = test system: 14S.15.A hybridoma; test: Plate-bound mCD1d fusion protein hybridoma stimulation assay (IL-2 ELISA); assay type: cell-based, mouse; conditions: 14S.15.A diverse TCR hybridoma; plate-bound mCD1d-IgGFc2a fusion protein preincubated with lipid antigen
Procedure, shortened: (§1)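 Protein A plates loaded with 400-600 ng/well mCD1d fusion protein plus lipid antigen (default 40:1 molar ratio), 24-48 hr at 37 °C, washed; hybridomas added at 1×10^5 cells/well for 16-20 hr. Supernatant IL-2 quantified by sandwich ELISA against murine IL-2 standard curve.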

[3] = test system: VII68 hybridoma; test: as above; assay type: cell-based, mouse; conditions: VII68 diverse TCR hybridoma; plate-bound mCD1d-IgGFc2a fusion protein preincubated with lipid antigen
Procedure, shortened: as §1

[4] = test system: XV104 hybridoma; test: as above; assay type: cell-based, mouse; conditions: XV104 diverse TCR hybridoma; plate-bound mCD1d-IgGFc2a fusion protein preincubated with lipid antigen
Procedure, shortened: as §1

[5] = test system: 24.8.A hybridoma; test: as above; assay type: cell-based, mouse; conditions: for IL-2 response to mCD1d fusion protein pre-treated with purified or synthetic lipid: compared to untreated or buffer treated fusion protein; for IL-2 secretion: 24.8 A NKT hybridoma, plate-bound mCD1d-IgGFc2a fusion protein preincubated with lipid antigen
Procedure, shortened: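 Protein A plates were loaded with 400-600 ng/well mCD1d fusion protein, then given lipid antigen (40:1 molar ratio to fusion protein unless specified) in PBS pH 7.2 for 24-48 h at 37 °C. After washing, 1×10^5 hybridoma cells/well were added for 16-20 h at 37 °C. Secreted IL-2 measured by sandwich ELISA against a murine IL-2 standard curve.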

Compound | cytokine secretion in response to CD1d-transfected antigen presenting cells [1] | IL-2 secretion [2] | IL-2 secretion [3] | IL-2 secretion [4] | IL-2 response to mCD1d fusion protein pre-treated with purified or synthetic lipid ([5]; 24.8.A hybridoma) | IL-2 secretion [5] | IL-2 produced in the presence of the 19G11 anti-mCD1d mAb ([5]; 24.8.A hybridoma, representative experiment, 19G11 blocking antibody included) | mean IL-2 secreted ([5]; 24.8.A hybridoma, representative experiment, mCD1d fusion protein pre-treated with antigen) | reduction of IL-2 secretion by phospholipase treatment of the antigen ([5]; PI treated with PLC or PLD prior to pre-incubation with the mCD1d fusion protein)
CCCCCCCCCCCCCCCCCCCCCCCCCC(=O)N[C@@H](CO[C@H]1O[C@H](CO)[C@H](O)[C@H](O)[C@H]1O)[C@H](O)[C@H](O)CCCCCCCCCCCCCC [α-GalCer, α-galactosylceramide] | enhanced | + (“+” indicates 50-250 pg/ml) | 0 (A “0” indicates a mean of less than 50 pg/ml IL-2 was secreted) | 0 (A “0” indicates a mean of less than 50 pg/ml IL-2 was secreted) | only a slightly enhanced response; also recorded: little IL-2 was secreted | + (“+” indicates 50-250 pg/ml) | – | – | –
phosphatidylinositol [PI] | – | 0 (A “0” indicates a mean of less than 50 pg/ml IL-2 was secreted) | 0 (A “0” indicates a mean of less than 50 pg/ml IL-2 was secreted) | 0 (A “0” indicates a mean of less than 50 pg/ml IL-2 was secreted) | marked increase of IL-2 production; also recorded: significantly enhanced IL-2 release | +++ (“+++” indicates greater than 1000 pg/ml IL-2) | no detectable IL-2 | 4,746 pg/ml | approximately 70%
unglycosylated ceramide | – | 0 (A “0” indicates a mean of less than 50 pg/ml IL-2 was secreted) | 0 (A “0” indicates a mean of less than 50 pg/ml IL-2 was secreted) | 0 (A “0” indicates a mean of less than 50 pg/ml IL-2 was secreted) | – | + (“+” indicates 50-250 pg/ml) | – | – | –
β-galactosylceramide [β-GalCer] | – | 0 (A “0” indicates a mean of less than 50 pg/ml IL-2 was secreted) | 0 (A “0” indicates a mean of less than 50 pg/ml IL-2 was secreted) | 0 (A “0” indicates a mean of less than 50 pg/ml IL-2 was secreted) | – | + (“+” indicates 50-250 pg/ml) | – | – | –
